The results in this text go back to ChEMBL document CHEMBL3856229, “Hybrid Antibiotic Overcomes Resistance in P. aeruginosa by Enhancing Outer Membrane Penetration and Reducing Efflux” (J Med Chem, 2016).

Converted amounts (≈) assume the structure as drawn.

Format in all cases: functional
In assay [1] the test system is Pseudomonas aeruginosa. In words: Antibacterial activity against multidrug/extremely drug-resistant/colistin-susceptible Pseudomonas aeruginosa isolate 260-97103.
The subject of assay [2] is Pseudomonas aeruginosa. In words: Antibacterial activity against multidrug/extremely drug-resistant/colistin-susceptible Pseudomonas aeruginosa isolate 101885.
The test system of assay [3] is Pseudomonas aeruginosa. In words: Antibacterial activity against multidrug/extremely drug-resistant/colistin-susceptible Pseudomonas aeruginosa isolate 259-96918.
For assay [4], the system named is Pseudomonas aeruginosa. In words: Antibacterial activity against pandrug-resistant Pseudomonas aeruginosa isolate 101243.
The test system of assay [5] is Pseudomonas aeruginosa. In words: Antibacterial activity against pandrug-resistant Pseudomonas aeruginosa isolate 91433.
The subject of assay [6] is Pseudomonas aeruginosa. In words: Antibacterial activity against multidrug/extremely drug-resistant/colistin-susceptible Pseudomonas aeruginosa isolate 100036.
Assay [7] relates to Pseudomonas aeruginosa. In words: Antibacterial activity against multidrug/extremely drug-resistant/colistin-susceptible Pseudomonas aeruginosa isolate 262-101856.
Assay [8] concerns Pseudomonas aeruginosa. In words: Antibacterial activity against multidrug/extremely drug-resistant/colistin-susceptible Pseudomonas aeruginosa isolate 264-104354.
Assay [9] has as its system Staphylococcus epidermidis. In words: Antibacterial activity against methicillin-resistant Staphylococcus epidermidis isolate CAN-ICU 61589 after 24 hrs by microtitre broth dilution method. The conditions noted are these: isolate CAN-ICU 61589, 24 h. On the technique in general: In broth dilution the organism is exposed to a series of concentrations in liquid medium.
A further assay relates to Escherichia coli. In words: Antibacterial activity against amikacin-resistant Escherichia coli isolate CAN-ICU 63074 after 24 hrs by microtitre broth dilution method. Conditions: isolate CAN-ICU 63074, 24 h.
Assay [10] relates to Pseudomonas aeruginosa. In words: Antibacterial activity against multidrug-resistant/tobramycin-susceptible Pseudomonas aeruginosa isolate 79199.
Assay [11] deals with Pseudomonas aeruginosa. In words: Antibacterial activity against multidrug-resistant/tobramycin-susceptible Pseudomonas aeruginosa isolate 80621.
The subject of assay [12] is Pseudomonas aeruginosa. In words: Antibacterial activity against multidrug-resistant/tobramycin-susceptible Pseudomonas aeruginosa isolate 86052.
The subject of assay [13] is Pseudomonas aeruginosa. In words: Antibacterial activity against multidrug-resistant/tobramycin-susceptible Pseudomonas aeruginosa isolate 108590.
The subject of assay [14] is Pseudomonas aeruginosa. In words: Antibacterial activity against multidrug-resistant/tobramycin-susceptible Pseudomonas aeruginosa isolate 86141.
The subject of assay [15] is Pseudomonas aeruginosa. In words: Antibacterial activity against multidrug-resistant/tobramycin-susceptible Pseudomonas aeruginosa isolate 86079.
For assay [16], the system named is Pseudomonas aeruginosa. In words: Antibacterial activity against multidrug-resistant/tobramycin-susceptible Pseudomonas aeruginosa isolate 84745.
Assay [17] relates to Pseudomonas aeruginosa. In words: Antibacterial activity against multidrug-resistant/tobramycin-susceptible Pseudomonas aeruginosa isolate 86053.
The subject of assay [18] is Pseudomonas aeruginosa. In words: Antibacterial activity against multidrug-resistant/tobramycin-susceptible Pseudomonas aeruginosa isolate 85322.
The subject of assay [19] is Pseudomonas aeruginosa. In words: Antibacterial activity against multidrug-resistant/tobramycin-susceptible Pseudomonas aeruginosa isolate 86067.
The test system of assay [20] is Pseudomonas aeruginosa. In words: Antibacterial activity against multidrug-resistant/tobramycin-susceptible Pseudomonas aeruginosa isolate 83182.
Assay [21] relates to Pseudomonas aeruginosa. In words: Antibacterial activity against multidrug-resistant/tobramycin-susceptible Pseudomonas aeruginosa isolate 92014.

The MIC is the lowest concentration that inhibits growth of the organism. A high value points to weaker potency.

For the molecule `C[C@H]1c2cccc(O)c2C(=O)C2=C(O)[C@]3(O)C(=O)C(C(N)=O)=C(O)[C@@H](N(C)C)[C@@H]3[C@@H](O)[C@@H]21.O` [DOXYCYCLINE], the MIC in the assay with Pseudomonas aeruginosa [1] was 32 µg/mL; against Pseudomonas aeruginosa [2], more than 32 µg/mL; against Pseudomonas aeruginosa [3], more than 32 µg/mL; in the assay on Pseudomonas aeruginosa [4], 8 µg/mL; against Pseudomonas aeruginosa [5], 32 µg/mL; with Pseudomonas aeruginosa [6], more than 32 µg/mL. Besides, the MIC in the assay on Pseudomonas aeruginosa [7] and against Pseudomonas aeruginosa [8] was more than 32 µg/mL each time.
`Cc1nnc(SCC2=C(C(=O)O)N3C(=O)[C@@H](NC(=O)Cn4cnnn4)[C@H]3SC2)s1` [CEFAZOLIN]: the MIC in [9] was more than 32 µg/mL.
With `NCC[C@H](O)C(=O)N[C@@H]1C[C@H](N)[C@@H](O[C@H]2O[C@H](CN)[C@@H](O)[C@H](O)[C@H]2O)[C@H](O)[C@H]1O[C@H]1O[C@H](CO)[C@@H](O)[C@H](N)[C@H]1O` [AMIKACIN], in the assay with Escherichia coli, the MIC was 32 µg/mL (≈ 54.6 µM).
`C[C@@H](O)[C@H]1C(=O)N2C(C(=O)O)=C(S[C@@H]3CN[C@H](C(=O)N(C)C)C3)[C@H](C)[C@H]12` [MEROPENEM]: the minimum inhibitory concentration (MIC) is 16 µg/mL (≈ 41.7 µM) against Pseudomonas aeruginosa [1]; 1 µg/mL (≈ 2.61 µM) against Pseudomonas aeruginosa [2]; 16 µg/mL (≈ 41.7 µM) against Pseudomonas aeruginosa [10]; 16 µg/mL (≈ 41.7 µM) in the assay with Pseudomonas aeruginosa [11]; more than 32 µg/mL against Pseudomonas aeruginosa [3]; 8 µg/mL (≈ 20.9 µM) against Pseudomonas aeruginosa [12]. For the same molecule, the MIC in the assay on Pseudomonas aeruginosa [4] came out at 16 µg/mL (≈ 41.7 µM); with Pseudomonas aeruginosa [5], 8 µg/mL (≈ 20.9 µM); with Pseudomonas aeruginosa [13], 8 µg/mL (≈ 20.9 µM); in the assay on Pseudomonas aeruginosa [14], 16 µg/mL (≈ 41.7 µM); against Pseudomonas aeruginosa [15], 32 µg/mL (≈ 83.4 µM); against Pseudomonas aeruginosa [6], 4 µg/mL (≈ 10.4 µM). Further, the minimum inhibitory concentration (MIC) in the assay with Pseudomonas aeruginosa [16] is 16 µg/mL (≈ 41.7 µM); against Pseudomonas aeruginosa [17] it was more than 32 µg/mL; against Pseudomonas aeruginosa [18], 16 µg/mL (≈ 41.7 µM); against Pseudomonas aeruginosa [19], more than 32 µg/mL; in the assay with Pseudomonas aeruginosa [20] it was 16 µg/mL (≈ 41.7 µM); against Pseudomonas aeruginosa [21] it was 8 µg/mL (≈ 20.9 µM). The values for the MIC in the assay on Pseudomonas aeruginosa [7] and in the assay with Pseudomonas aeruginosa [8] were 32 µg/mL (≈ 83.4 µM) and more than 32 µg/mL, respectively.
With `C[C@@H](O)[C@H]1C(=O)N2C(C(=O)O)=C(SCCNC=N)C[C@H]12` [IMIPENEM ANHYDROUS], the minimum inhibitory concentration (MIC) against Pseudomonas aeruginosa [10] was found to be 4 µg/mL (≈ 13.4 µM); against Pseudomonas aeruginosa [11] it was 32 µg/mL (≈ 107 µM); in the assay on Pseudomonas aeruginosa [12] it was 32 µg/mL (≈ 107 µM); in the assay on Pseudomonas aeruginosa [13] it was 32 µg/mL (≈ 107 µM); in the assay with Pseudomonas aeruginosa [14] it was 16 µg/mL (≈ 53.4 µM); in the assay with Pseudomonas aeruginosa [15], 16 µg/mL (≈ 53.4 µM). Also, the minimal inhibitory concentration (MIC) against Pseudomonas aeruginosa [16] is 16 µg/mL (≈ 53.4 µM); against Pseudomonas aeruginosa [17], 16 µg/mL (≈ 53.4 µM); against Pseudomonas aeruginosa [18], 32 µg/mL (≈ 107 µM); in the assay on Pseudomonas aeruginosa [19], more than 32 µg/mL; in the assay on Pseudomonas aeruginosa [20], 16 µg/mL (≈ 53.4 µM); in the assay on Pseudomonas aeruginosa [21], 8 µg/mL (≈ 26.7 µM).
Consider `CC(C)(O/N=C(\C(=O)N[C@@H]1C(=O)N2C(C(=O)[O-])=C(C[n+]3ccccc3)CS[C@H]12)c1csc(N)n1)C(=O)O` [CEFTAZIDIME], for which the MIC is 32 µg/mL (≈ 58.5 µM) against Pseudomonas aeruginosa [10]; more than 32 µg/mL against Pseudomonas aeruginosa [11]; more than 32 µg/mL in the assay on Pseudomonas aeruginosa [12]; 32 µg/mL (≈ 58.5 µM) in the assay with Pseudomonas aeruginosa [13]; more than 32 µg/mL with Pseudomonas aeruginosa [14]; more than 32 µg/mL against Pseudomonas aeruginosa [15]. Further, the minimal inhibitory concentration (MIC) with Pseudomonas aeruginosa [16], with Pseudomonas aeruginosa [17], against Pseudomonas aeruginosa [18], with Pseudomonas aeruginosa [19], against Pseudomonas aeruginosa [20] and against Pseudomonas aeruginosa [21] was more than 32 µg/mL each time.
Take `C[C@@H](O)[C@H]1C(=O)N2C(C(=O)O)=C(S[C@@H]3CN[C@H](CNS(N)(=O)=O)C3)[C@H](C)[C@H]12` [DORIPENEM]: the minimum inhibitory concentration (MIC) against Pseudomonas aeruginosa [1] was 32 µg/mL (≈ 76.1 µM); against Pseudomonas aeruginosa [2], 0.5 µg/mL (≈ 1.19 µM); in the assay with Pseudomonas aeruginosa [3], more than 32 µg/mL; in the assay with Pseudomonas aeruginosa [4], 16 µg/mL (≈ 38 µM); in the assay with Pseudomonas aeruginosa [5], 8 µg/mL (≈ 19 µM); against Pseudomonas aeruginosa [6], 5 µg/mL (≈ 11.9 µM). Also, the MIC in the assay with Pseudomonas aeruginosa [7] turned out to be 8 µg/mL (≈ 19 µM); with Pseudomonas aeruginosa [8], 16 µg/mL (≈ 38 µM).
For the molecule GENTAMICIN, the minimal inhibitory concentration (MIC) with Pseudomonas aeruginosa [1] was more than 32 µg/mL; against Pseudomonas aeruginosa [2], more than 0.5 µg/mL; with Pseudomonas aeruginosa [10] it was 4 µg/mL; with Pseudomonas aeruginosa [11], 16 µg/mL; against Pseudomonas aeruginosa [3], more than 32 µg/mL; against Pseudomonas aeruginosa [12] it was 4 µg/mL. Further, the MIC is more than 32 µg/mL in the assay on Pseudomonas aeruginosa [4]; 32 µg/mL against Pseudomonas aeruginosa [5]; 16 µg/mL in the assay on Pseudomonas aeruginosa [13]; 8 µg/mL against Pseudomonas aeruginosa [14]; 8 µg/mL against Pseudomonas aeruginosa [15]; more than 32 µg/mL in the assay with Pseudomonas aeruginosa [6]. Besides, the MIC against Pseudomonas aeruginosa [16] is 8 µg/mL; against Pseudomonas aeruginosa [17] it was 4 µg/mL; against Pseudomonas aeruginosa [18] it was 4 µg/mL; against Pseudomonas aeruginosa [19], more than 32 µg/mL; in the assay with Pseudomonas aeruginosa [20] it was 4 µg/mL; with Pseudomonas aeruginosa [21], 4 µg/mL. The minimal inhibitory concentration (MIC) against Pseudomonas aeruginosa [7] and with Pseudomonas aeruginosa [8] was more than 32 µg/mL throughout.
Consider `CO/N=C(\C(=O)N[C@@H]1C(=O)N2C(C(=O)[O-])=C(C[N+]3(C)CCCC3)CS[C@H]12)c1csc(N)n1` [CEFEPIME], for which the minimum inhibitory concentration (MIC) was 16 µg/mL (≈ 33.3 µM) in the assay with Pseudomonas aeruginosa [1]; 8 µg/mL (≈ 16.6 µM) in the assay on Pseudomonas aeruginosa [2]; 32 µg/mL (≈ 66.6 µM) in the assay with Pseudomonas aeruginosa [10]; 8 µg/mL (≈ 16.6 µM) against Pseudomonas aeruginosa [11]; more than 64 µg/mL against Pseudomonas aeruginosa [3]; 16 µg/mL (≈ 33.3 µM) with Pseudomonas aeruginosa [12]. Moreover, the minimal inhibitory concentration (MIC) in the assay on Pseudomonas aeruginosa [4] came to 64 µg/mL (≈ 133 µM); against Pseudomonas aeruginosa [5], 16 µg/mL (≈ 33.3 µM); against Pseudomonas aeruginosa [14], 16 µg/mL (≈ 33.3 µM); with Pseudomonas aeruginosa [15] it was 32 µg/mL (≈ 66.6 µM); with Pseudomonas aeruginosa [6], 4 µg/mL (≈ 8.32 µM); with Pseudomonas aeruginosa [16], 16 µg/mL (≈ 33.3 µM). Also, the MIC was 64 µg/mL (≈ 133 µM) against Pseudomonas aeruginosa [17]; 16 µg/mL (≈ 33.3 µM) with Pseudomonas aeruginosa [18]; 64 µg/mL (≈ 133 µM) with Pseudomonas aeruginosa [19]; 16 µg/mL (≈ 33.3 µM) against Pseudomonas aeruginosa [20]; 16 µg/mL (≈ 33.3 µM) in the assay on Pseudomonas aeruginosa [21]; 32 µg/mL (≈ 66.6 µM) against Pseudomonas aeruginosa [7]. The molecule further showed an MIC in the assay with Pseudomonas aeruginosa [8] of 32 µg/mL (≈ 66.6 µM).
